What all share (experiment): NCI-60 cell line screen, 48 h
Assay [1] relates to DU-145 prostate.
In assay [2] the test system is HT29 colon.
Assay [3] relates to MDA-MB-435.
Assay [4] relates to NCI/ADR-RES ovarian.
Assay [5] relates to RPMI-8226 leukemia.
In assay [6] the test system is SF-268 CNS.
Assay [7] has as its system SK-OV-3 ovarian.
Assay [8] relates to TK-10 renal.
For assay [9], the system named is OVCAR-5 ovarian.
Assay [10] deals with SNB-19 CNS.

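The compound was tested at five concentrations on cells cultured in 96-well plates, with a 48-hour exposure period. GI50 = concentration required for 50% inhibition of growth. Definition used: TGI = concentration required for complete inhibition of growth.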 Where only a bound is given, the exact number is not on record here.

In PubChem BioAssay (NCI) one finds GI50 and TGI data, which are given here for 4 molecules.

On to `Cc1ccc(N(CC(=O)Nc2ccc(S(=O)(=O)N3CCC(N4CCCC4)CC3)cc2)S(=O)(=O)c2ccc(Cl)cc2)cc1`, for which the GI50 in [1] was 1760 nM; in assay [2] it was 1870 nM; in assay [3], 1690 nM; in assay [4], 1930 nM; in [5], 2080 nM; in [6] it was 1610 nM. In addition, the figures for the GI50 in [7] and in assay [8] were 1820 nM and 1680 nM, respectively. The TGI in assay [1] came out at 3.4 µM; in [2] it was 3.68 µM; in assay [3], 3.14 µM; in assay [4], 4.05 µM; in assay [5], 5.06 µM; in [6], 3.29 µM. Besides, the TGI was determined as 3.29 µM in assay [7] and 3.36 µM in assay [8].
Take `O=C1Nc2ccc(Cl)cc2/C1=C\c1c(Cl)nc2sccn12`: the TGI was more than 100 µM in assay [1]; 3.22 µM in assay [3]; 17.6 µM in assay [4]; 78.2 µM in assay [9]; more than 100 µM in [5]; more than 100 µM in assay [6]. The TGI in assay [7], in assay [10] and in [8] was more than 100 µM in each case.
For the molecule `O=C(Nc1ccc(-n2ccc3c(NC(=O)c4ccccc4)ncnc32)cc1)Nc1cccc(Cl)c1Cl`, the GI50 in assay [1] is 1470 nM; in assay [2], 808 nM; in assay [3], 1530 nM; in [4], 1580 nM; in assay [9], 1040 nM; in [5], 646 nM. For the same molecule, the GI50 is 1100 nM in assay [6], 1440 nM in [10] and 1010 nM in [8]. Further, the TGI in assay [1] was 3.85 µM; in [2] it was 2.11 µM; in [3], 8.64 µM; in assay [4] it was 7.29 µM; in [9] it was 2.84 µM; in assay [5] it was 2.76 µM. The TGI in [6] came out at 3.13 µM; in assay [10] it was 5.84 µM; in assay [8], 2.34 µM.
Take `CC(=O)NC1=C[C@@H]([C@H]2COC(C)(C)O2)OC1=O`: the TGI in [2], in assay [4], in assay [9], in assay [5], in assay [6] and in assay [7] was more than 100 µM throughout. In [10], the TGI is more than 100 µM.
